From US6936585B2, “Corticotropin releasing factor 2 receptor agonists” (priority 2002, dated 2005) come the findings set out here.

Where two headings read alike, the source gives them in different places. Peptide text beside a SMILES is read from it.

Assay [1] addresses T1, CRF2R (Homo sapiens, UniProt Q13324).
T1 sequence (Q13324 1-411): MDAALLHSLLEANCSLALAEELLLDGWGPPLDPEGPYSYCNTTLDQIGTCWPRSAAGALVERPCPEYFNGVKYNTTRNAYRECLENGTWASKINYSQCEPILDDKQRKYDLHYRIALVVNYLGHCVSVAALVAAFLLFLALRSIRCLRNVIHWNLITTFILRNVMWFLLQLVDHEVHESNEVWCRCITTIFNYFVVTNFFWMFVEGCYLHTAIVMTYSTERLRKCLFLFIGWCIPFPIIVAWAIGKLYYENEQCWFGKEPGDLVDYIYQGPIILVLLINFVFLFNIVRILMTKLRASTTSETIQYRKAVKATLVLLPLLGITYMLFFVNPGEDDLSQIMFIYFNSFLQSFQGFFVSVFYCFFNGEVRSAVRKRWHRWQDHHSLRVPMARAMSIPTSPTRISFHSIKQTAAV
Nature of the assay: CRF2R agonist activation (EC50 / Emax), called comparative CRF binding. It counts as cell-based. As to conditions: for Emax: read-out: CRF2R Emax. The gist of the method: (§1)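 CRFR-expressing cells + peptide vs vehicle; read-out cAMP (lysate assay) or CRE-linked reporter expression (luciferase, CAT, fluorescent protein, alkaline phosphatase, etc.). Signal compared against vehicle-treated cells.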

Assay [2] has as its target T2, CRF1R (Homo sapiens, UniProt P34998).
T2 sequence (P34998 24-415): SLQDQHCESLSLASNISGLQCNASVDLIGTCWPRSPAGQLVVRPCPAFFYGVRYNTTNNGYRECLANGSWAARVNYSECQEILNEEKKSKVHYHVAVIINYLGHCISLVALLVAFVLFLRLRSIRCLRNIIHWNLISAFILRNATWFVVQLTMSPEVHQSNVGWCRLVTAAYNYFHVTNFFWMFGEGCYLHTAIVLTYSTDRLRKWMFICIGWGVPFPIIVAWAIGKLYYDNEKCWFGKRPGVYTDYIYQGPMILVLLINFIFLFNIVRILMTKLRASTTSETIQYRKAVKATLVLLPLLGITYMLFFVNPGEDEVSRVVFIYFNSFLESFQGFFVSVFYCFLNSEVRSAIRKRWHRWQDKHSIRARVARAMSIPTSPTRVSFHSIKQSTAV
Nature of the assay: CRF1R agonist activation (EC50 / Emax), called comparative CRF binding. It counts as cell-based. The settings on record: for Emax: read-out: CRF1R Emax. The gist of the method: as §1

As a reminder, the Emax is the greatest response seen or fitted, relative to the assay's reference. `CC[C@H](C)[C@H](N)C(=O)N[C@H](C(=O)N[C@@H](CC(C)C)C(=O)N[C@@H](CO)C(=O)N[C@@H](CC(C)C)C(=O)N[C@@H](CC(=O)O)C(=O)N[C@H](C(=O)N1CCC[C@H]1C(=O)N[C@H](C(=O)NCC(=O)N[C@@H](CC(C)C)C(=O)N[C@@H](CC(C)C)C(=O)N[C@@H](CCC(N)=O)C(=O)N[C@@H](CCC(=O)O)C(=O)N[C@H](C(=O)N[C@@H](CC(C)C)C(=O)N[C@@H](CCC(=O)O)C(=O)N[C@@H](CCSC)C(=O)N[C@@H](C)C(=O)N[C@@H](CCCNC(=N)N)C(=O)N[C@@H](C)C(=O)N[C@@H](CCC(=O)O)C(=O)N[C@@H](CCC(N)=O)C(=O)N[C@@H](CC(C)C)C(=O)N[C@@H](C)C(=O)N[C@@H](CCC(N)=O)C(=O)N[C@@H](CCC(N)=O)C(=O)N[C@@H](C)C(=O)N[C@@H](Cc1c[nH]cn1)C(=O)N[C@@H](CO)C(=O)N[C@@H](CC(N)=O)C(=O)N[C@@H](CCCNC(=N)N)C(=O)N[C@@H](CCCCN)C(=O)N[C@@H](CC(C)C)C(=O)N[C@@H](CCSC)C(=O)N[C@@H](CCC(=O)O)C(=O)N[C@H](C(=O)N[C@H](C(N)=O)[C@@H](C)CC)[C@@H](C)CC)C(C)C)[C@@H](C)CC)C(C)C)C(C)C` [compound 165] (H-IVLSLDVPIGLLQEVLEMARAEQLAQQAHSNRKLMEII-NH2): the Emax came out at 75% in assay [1] and 19% in assay [2].
The EC50 is the concentration at which the effect is half-maximal. For `CC[C@H](C)[C@H](N)C(=O)N[C@H](C(=O)N[C@@H](CC(C)C)C(=O)N[C@@H](CO)C(=O)N[C@@H](CC(C)C)C(=O)N[C@@H](CC(=O)O)C(=O)N[C@H](C(=O)N1CCC[C@H]1C(=O)N[C@H](C(=O)NCC(=O)N[C@@H](CC(C)C)C(=O)N[C@@H](CC(C)C)C(=O)N[C@@H](CCC(N)=O)C(=O)N[C@H](C(=O)N[C@@H](CC(C)C)C(=O)N[C@H](C(=O)N[C@@H](CCC(=O)O)C(=O)N[C@H](C(=O)N[C@@H](CCC(=O)O)C(=O)N[C@@H](CCCCN)C(=O)N[C@@H](CCC(N)=O)C(=O)N[C@@H](CCC(=O)O)C(=O)N[C@@H](CCCCN)C(=O)N[C@@H](CCC(=O)O)C(=O)N[C@@H](CCCCN)C(=O)N[C@@H](CCC(N)=O)C(=O)N[C@@H](CCC(N)=O)C(=O)N[C@@H](C)C(=O)N[C@@H](C)C(=O)N[C@@H](CC(N)=O)C(=O)N[C@@H](CC(N)=O)C(=O)N[C@@H](C)C(=O)N[C@@H](CCCNC(=N)N)C(=O)N[C@H](C(=O)N[C@@H](CC(C)C)C(=O)N[C@@H](C)C(=O)N[C@@H](CCCNC(=N)N)C(=O)N[C@H](C(N)=O)C(C)C)[C@@H](C)CC)[C@@H](C)CC)[C@@H](C)CC)[C@@H](C)CC)[C@@H](C)CC)C(C)C)C(C)C` [compound 166] (H-IVLSLDVPIGLLQILIEIEKQEKEKQQAANNARILARV-NH2; N-terminus assumed), the EC50 stood at 3.7 nM in assay [1] and 437 nM in assay [2] (CRF1R EC50). The Emax amounted to 99% in assay [1] and 95% in assay [2].
Take `CC[C@H](C)[C@H](N)C(=O)N[C@H](C(=O)N[C@@H](CC(C)C)C(=O)N[C@@H](CO)C(=O)N[C@@H](CC(C)C)C(=O)N[C@@H](CC(=O)O)C(=O)N[C@H](C(=O)N1CCC[C@H]1C(=O)N[C@H](C(=O)NCC(=O)N[C@@H](CC(C)C)C(=O)N[C@@H](CC(C)C)C(=O)N[C@@H](CCC(N)=O)C(=O)N[C@H](C(=O)N[C@@H](CC(C)C)C(=O)N[C@@H](CC(C)C)C(=O)N[C@@H](CCC(=O)O)C(=O)N[C@@H](CCC(N)=O)C(=O)N[C@@H](CCC(=O)O)C(=O)N[C@@H](CCCCN)C(=O)N[C@@H](CCC(N)=O)C(=O)N[C@@H](CCC(=O)O)C(=O)N[C@@H](CCCCN)C(=O)N[C@@H](CCC(=O)O)C(=O)N[C@@H](CCCCN)C(=O)N[C@@H](CCC(N)=O)C(=O)N[C@@H](CCC(N)=O)C(=O)N[C@@H](C)C(=O)N[C@H](C(=O)N[C@H](C(=O)N[C@@H](CC(N)=O)C(=O)N[C@@H](C)C(=O)N[C@@H](CCCNC(=N)N)C(=O)N[C@H](C(=O)N[C@@H](CC(C)C)C(=O)N[C@@H](C)C(=O)N[C@@H](CCCNC(=N)N)C(=O)N[C@H](C(N)=O)C(C)C)[C@@H](C)CC)[C@@H](C)O)[C@@H](C)O)[C@@H](C)CC)[C@@H](C)CC)C(C)C)C(C)C` [compound 167] (H-IVLSLDVPIGLLQILLEQEKQEKEKQQATTNARILARV-NH2; N-terminus assumed): the figures for the Emax in assay [1] and in assay [2] were 100% and 15%, respectively.
Consider `CC[C@H](C)[C@H](N)C(=O)N[C@H](C(=O)N[C@@H](CC(C)C)C(=O)N[C@@H](CO)C(=O)N[C@@H](CC(C)C)C(=O)N[C@@H](CC(=O)O)C(=O)N[C@H](C(=O)N1CCC[C@H]1C(=O)N[C@H](C(=O)NCC(=O)N[C@@H](CC(C)C)C(=O)N[C@@H](CC(C)C)C(=O)N[C@@H](CCC(N)=O)C(=O)N[C@H](C(=O)N[C@@H](CC(C)C)C(=O)N[C@H](C(=O)N[C@@H](CCC(=O)O)C(=O)N[C@H](C(=O)N[C@@H](CCC(=O)O)C(=O)N[C@@H](CCCCN)C(=O)N[C@@H](CCC(N)=O)C(=O)N[C@@H](CCC(=O)O)C(=O)N[C@@H](CCCCN)C(=O)N[C@@H](CCC(=O)O)C(=O)N[C@@H](CCCCN)C(=O)N[C@@H](CCC(N)=O)C(=O)N[C@@H](CCC(N)=O)C(=O)N[C@@H](C)C(=O)N[C@@H](C)C(=O)N[C@H](C(=O)N[C@H](C(=O)N[C@@H](CC(N)=O)C(=O)N[C@@H](C)C(=O)N[C@@H](CCCNC(=N)N)C(=O)N[C@H](C(=O)N[C@@H](CC(C)C)C(=O)N[C@@H](C)C(=O)N[C@@H](CCCNC(=N)N)C(=O)N[C@H](C(N)=O)C(C)C)[C@@H](C)CC)[C@@H](C)O)[C@@H](C)O)[C@@H](C)CC)[C@@H](C)CC)[C@@H](C)CC)[C@@H](C)CC)C(C)C)C(C)C` [compound 168] (H-IVLSLDVPIGLLQILIEIEKQEKEKQQAATTNARILARV-NH2; N-terminus assumed), for which the EC50 in assay [1] (read-out: CRF2R EC50) was 4.9 nM; in assay [2] (read-out: CRF1R EC50) it was at least 1000 nM. Further, the Emax was 75% in assay [1] and 52% in assay [2].
Consider `CC[C@H](C)[C@H](NC(=O)[C@H](C)NC(=O)[C@H](CC(N)=O)NC(=O)[C@H](CCC(N)=O)NC(=O)[C@H](CCC(=O)O)NC(=O)[C@H](C)NC(=O)[C@H](CCCNC(=N)N)NC(=O)[C@H](CCC(=O)O)NC(=O)[C@H](CCCNC(=N)N)NC(=O)[C@H](CCC(N)=O)NC(=O)[C@H](CO)NC(=O)[C@H](CCC(N)=O)NC(=O)[C@@H](NC(=O)[C@H](CCCNC(=N)N)NC(=O)[C@H](C)NC(=O)[C@H](CC(C)C)NC(=O)[C@H](CCC(=O)O)NC(=O)[C@H](CC(C)C)NC(=O)[C@H](CC(C)C)NC(=O)[C@@H](NC(=O)[C@H](CCCNC(=N)N)NC(=O)[C@H](CC(C)C)NC(=O)[C@H](CC(C)C)NC(=O)[C@H](Cc1ccc(O)cc1)NC(=O)[C@@H](NC(=O)[C@@H]1CCCN1C(=O)[C@H](CC(C)C)NC(=O)[C@H](CC(=O)O)NC(=O)[C@@H](NC(=O)[C@H](CO)NC(=O)[C@H](CC(C)C)NC(=O)[C@H](CO)NC(=O)[C@@H]1CCCN1C(=O)[C@H](CC(N)=O)NC(=O)[C@@H](N)CC(=O)O)[C@@H](C)CC)[C@@H](C)O)[C@@H](C)O)[C@@H](C)O)C(=O)N[C@H](C(=O)N[C@@H](Cc1ccccc1)C(=O)N[C@@H](C)C(=O)N[C@@H](CO)C(=O)N[C@H](C(N)=O)C(C)C)[C@@H](C)CC` [compound 173] (H-DNPSLSIDLPTYLLRTLLELARTQSQRERAEQNAIIFASV-NH2), for which the Emax came to 65.2% in assay [1] and 6.05% in assay [2].
